# Measurements reported in paper PMC6797515, “Effects of Bakuchiol on chondrocyte proliferation via the PI3K‐Akt and ERK1/2 pathways mediated by the estrogen receptor for promotion of the regeneration of knee articular cartilage defects” (Cell Proliferation, 2019).
# Columns and labels:
# estrogen receptor = test system: estrogen receptor; parameters: method as in earlier work; conditions: ref 11 (Lim et al); cited from earlier work
# Ki67, p‐ERK and p‐Akt = assay: Immunofluorescent staining of Ki67, p-Akt, p-ERK at the defect site; format: in vivo, Sprague‐Dawley (SD) rats; conditions: 1 and 2 weeks post-injury
# Description: Animal experiments were conducted in accordance with protocols approved by the Chongqing University Animal Care and Use Committee. For the cartilage injury model, a 0.5‐mm‐deep thickness defect was created through the articular cartilage and subchondral bone of the patellar groove of Sprague‐Dawley (SD) rats (200‐250 g) using a micro‐electrical drill. Matrigel mixed with bakuchiol (100 µmol/L) was implanted locally to fill the cartilage defect. Articular cartilage samples were harvested after 1 and 2 weeks post‐implantation for macroscopic and histological evaluation, with analysis by micro‐CT. The harvested samples were embedded in paraffin, sectioned for 10 μm thickness and then stained with haematoxylin and eosin (H&E), Safranin‐O green and Alcian blue. The sections were scored histologically in accordance with previous studies.9, 17, 18 The relative area of each defect (Figure 6: area within the dashed line) in the different groups was measured using Image J. The relative content of cartilage matrix was ascertained from the degree of Safranin staining (Red area) and GAG content by Alcian blue staining (Positive blue area). All morphological measurements were performed using Image J. The mean histological scores for each group were statistically analysed, with t tests performed between the BAK‐treated group and control. […]
# MKI67 [1] = assay: qRT-PCR gene expression of MKI67; format: cell-based, rat; conditions: 10 µmol/L, 48 hours
# Description: (§1) Cells were harvested using Trizol reagent (Invitrogen), followed by RNA isolation. Each sample was reverse transcribed to cDNA using a RevertAid First Strand cDNA Synthesis Kit (Thermo Fisher Scientific). The reverse transcription product was then used as a template to perform real‐time polymerase chain reaction (PCR) on a StepOne Plus thermal cycler (Applied Biosystems) using PowerUp™ SYBR™ Green Master Mix (Applied Biosystems), following the manufacturer's guidelines. The primers for CDK1 (F: 5′‐[…]‐3′; R: 5′‐[…]‐3′), E2F1 (F: 5′‐[…]‐3′; 5′‐[…]‐3′), MKI67 (F: 5′‐[…]‐3′; R: 5′‐[…]‐3′) were synthesized by Invitrogen. The final data were analysed by the 2^−ΔΔ ^C ^t method.
# chondrocytes = assay: EdU DNA proliferation assay; format: cell-based, rat; conditions: 10 and 20 µmol/L, 24 and 48 hours
# Description: Chondrocyte proliferation was quantified using an ethynyl deoxyuridine (EdU) DNA in vitro proliferation detection kit (Guangzhou RiboBio) using flow cytometry, in accordance with the manufacturer's instructions.14 Images of cells were captured by light with microscopy using Image‐Pro Plus 6.0 software (Media Cybernetics). The number of EdU‐labelled cells was calculated from fields randomly selected in each well. Numbers of cells in each phase of the cell cycle were calculated using a BD FACS Calibur Flow Cytometer at a 488 nm excitation wavelength.
# rat chondrocytes = assay: CCK8 cell viability / cytotoxicity assay; format: cell-based
# Description: Rat chondrocytes were isolated using a method adapted from a previous study.9 Briefly, articular cartilage was retrieved from the knees of healthy Sprague-Dawley rats (male, n = 5, weight: 150 g). The cartilage was minced, and pieces digested with 2 mg/mL of collagenase type II (Gibco) for 2 hours. After removal of undigested tissue, the cells were cultured in DMEM/F12 (1:1) supplemented with 10% FBS. Passage 2-3 (P2-3) cells were used in the experimental studies. The bakuchiol was purchased from Selleck ([…]). Animal experiment protocol was reviewed and approved by the Institutional Review Board (IRB) of Chongqing University. Cell viability in response to BAK was evaluated using a cell counting kit-8 (CCK8) assay which was also utilized to assess cell viability. Cells were seeded at a density of 1 × 10^4 cells/well in a 24-well plate and the cytotoxicity of BAK tested using concentrations of 1 to 100 μmol/L for 3 days. The cells were then treated with 10 μmol/L BAK for 7 days. The cells were then washed with PBS and incubated in serum-free medium containing 10% CCK8 reagent for 2-3 hours at 37°C in an atmosphere containing 5% CO2. Aliquots were pipetted into a 96-well plate and absorbance at 490 nm measured using a plate reader (Bio-Rad).
# [2] = test system: knee articular cartilage defect; assay: Rat knee articular cartilage defect model, histological evaluation; format: in vivo, Sprague‐Dawley (SD) rats; conditions: Matrigel with bakuchiol 100 µmol/L implanted locally
# Description: Animal experiments were conducted in accordance with protocols approved by the Chongqing University Animal Care and Use Committee. For the cartilage injury model, a 0.5‐mm‐deep thickness defect was created through the articular cartilage and subchondral bone of the patellar groove of Sprague‐Dawley (SD) rats (200‐250 g) using a micro‐electrical drill. Matrigel mixed with bakuchiol (100 µmol/L) was implanted locally to fill the cartilage defect. Articular cartilage samples were harvested after 1 and 2 weeks post‐implantation for macroscopic and histological evaluation, with analysis by micro‐CT. The harvested samples were embedded in paraffin, sectioned for 10 μm thickness and then stained with haematoxylin and eosin (H&E), Safranin‐O green and Alcian blue. The sections were scored histologically in accordance with previous studies.9, 17, 18 The relative area of each defect (Figure 6: area within the dashed line) in the different groups was measured using Image J. The relative content of cartilage matrix was ascertained from the degree of Safranin staining (Red area) and GAG content by Alcian blue staining (Positive blue area). All morphological measurements were performed using Image J. The mean histological scores for each group were statistically analysed, with t tests performed between the BAK‐treated group and control. In addition, the histological immunofluorescent staining for Ki67, p‐Akt, and p‐ERK was performed to verify the in vivo mechanisms of BAK on cell proliferation.
# E2F1 [3] = assay: Western blotting for E2F1 protein; format: cell-based, rat; conditions: BAK 1 to 10 µmol/L for 3 d
# Description: (§2) Western blotting analysis was performed as described previously. After separation using SDS‐PAGE then transfer to PVDF membranes, the target proteins were detected after incubating with primary antibodies for CDK1 (Abcam: ab18, 1:1000), E2F1 (Abcam: ab179445, 1:1000), phosphorylated Akt (CST: 9271, 1:1000), Akt (CST: 9272, 1:1000), phosphorylated ERK1/2 (Abcam: ab201015, 1:1000), ERK1/2 (Abcam: ab36991, 1:1000) and ERα (Santa Cruz: sc‐8005, 1:200). The membranes were then incubated with the corresponding secondary antibody at 37°C for 1 hour Finally, the immunoreactive bands were developed using SuperSignal West Femto Maximum sensitivity substrate (Thermo Fisher Scientific), and the images analysed using Quantity One Software (Bio‐Rad).
# E2F1 [4] = assay: qRT-PCR gene expression of E2F1; format: cell-based, rat; conditions: 10 µmol/L, 48 hours
# Description: as §1
# Akt = assay: Western blotting for phosphorylated/total Akt; format: cell-based, rat
# Description: as §2, with “(Bio‐Rad). The PI3K‐Akt and ERK signalling pathways were involved in the regulation of cell proliferation by BAK. Two methods of analysis were conducted to verify this. Firstly, the cells were treated with BAK or BAK plus the Akt or ERK inhibitors PI‐103 and SCH772984, respectively. […] Finally, the protein expression levels of CDK1 and phosphorylated and total Akt (p/t‐Akt) were detected using Western blotting so as to confirm the involvement of the ERα/PI3K‐Akt/ERK axis signalling pathways in cell proliferation by BAK stimulation.” for “(Bio‐Rad).”
# MKI67 [5] = assay: Immunofluorescent staining of MKI67 in chondrocytes; format: cell-based, rat; conditions: 10 µmol/L, relative to control
# ERK1/2 = assay: Western blotting for phosphorylated/total ERK1/2; format: cell-based, rat
# Description: as §2, with “(Bio‐Rad). The PI3K‐Akt and ERK signalling pathways were involved in the regulation of cell proliferation by BAK. Two methods of analysis were conducted to verify this. Firstly, the cells were treated with BAK or BAK plus the Akt or ERK inhibitors PI‐103 and SCH772984, respectively. […] Finally, the protein expression levels of CDK1 and phosphorylated and total Akt (p/t‐Akt) were detected using Western blotting so as to confirm the involvement of the ERα/PI3K‐Akt/ERK axis signalling pathways in cell proliferation by BAK stimulation.” for “(Bio‐Rad).”
# CDK1 [6] = assay: Western blotting for CDK1 protein; format: cell-based, rat; conditions: for CDK1 protein levels in chondrocytes: inhibitor 1 µmol/L added to 10 µmol/L BAK
# Description: Western blotting analysis was performed as described previously. After separation using SDS‐PAGE then transfer to PVDF membranes, the target proteins were detected after incubating with primary antibodies for CDK1 (Abcam: ab18, 1:1000), E2F1 (Abcam: ab179445, 1:1000), phosphorylated Akt (CST: 9271, 1:1000), Akt (CST: 9272, 1:1000), phosphorylated ERK1/2 (Abcam: ab201015, 1:1000), ERK1/2 (Abcam: ab36991, 1:1000) and ERα (Santa Cruz: sc‐8005, 1:200). The membranes were then incubated with the corresponding secondary antibody at 37°C for 1 hour Finally, the immunoreactive bands were developed using SuperSignal West Femto Maximum sensitivity substrate (Thermo Fisher Scientific), and the images analysed using Quantity One Software (Bio‐Rad). The PI3K‐Akt and ERK signalling pathways were involved in the regulation of cell proliferation by BAK. Two methods of analysis were conducted to verify this. Firstly, the cells were treated with BAK or BAK plus the Akt or ERK inhibitors PI‐103 and SCH772984, respectively. Following culture of the cells, Western blotting was used to ascertain if Akt or ERK1/2 were phosphorylated and to verify the association between BAK and the activation of the Akt and ERK1/2 pathways. Secondly, ERα siRNA (ERα si‐R) was used to knockdown estrogen receptor in the target cells, which were then further cultured for 48 hours with BAK. Meanwhile, the non‐treatment group was used as the control. Finally, the protein expression levels of CDK1 and phosphorylated and total Akt (p/t‐Akt) were detected using Western blotting so as to confirm the involvement of the ERα/PI3K‐Akt/ERK axis signalling pathways in cell proliferation by BAK stimulation.
# CDK1 [7] = assay: qRT-PCR gene expression of CDK1; format: cell-based, rat; conditions: 10 µmol/L, 48 hours
# Description: as §1
compound,measurement,setting,value
"C=C[C@@](C)(/C=C/c1ccc(O)cc1)CCC=C(C)C [BAK, bakuchiol]",estrogen receptor-binding affinity,estrogen receptor,high estrogen receptor‐binding affinity
same,"expression of Ki67, p-ERK and p-Akt in vivo","Ki67, p‐ERK and p‐Akt",promoted the expression
same,mRNA level of MKI67,MKI67 [1],significantly up‐regulated
same,cell proliferation (EdU staining),chondrocytes,significantly promoted cell proliferation
same,cell viability vs control,"rat chondrocytes; 10 µmol/L, 7 days of culture",promoted cell viability
same,toxicity in the cells,rat chondrocytes; 100 µmol/L,clear toxicity
same,cytotoxic effects on chondrocytes,"rat chondrocytes; 1 to 100 µmol/L, after 24 hours",no cytotoxic effects
same,proliferation of chondrocytes vs control,"rat chondrocytes; 5, 10 and 20 µmol/L, control 0.1% DMSO",increased proliferation significantly
same,EC50,"rat chondrocytes; Rattus norvegicus, Chondrocyte, CCK8, chondrocytes, 24 h, Figure 1A, read-out: EC50 of BAK",8.9 µM
same,IC50,"rat chondrocytes; Rattus norvegicus, Chondrocyte, CCK8, chondrocytes, Figure S1, read-out: IC50 (toxicity in the cells)",48.5 µM
same,BAK concentration in the medium with significant cytotoxicity,rat chondrocytes; chondrocytes,> 20 µmol/L
same,histological score of the defects,[2]; 1 week,3.60 ± 0.54
same,histological score of the defects,[2]; 2 weeks,5.40 ± 0.55
same,content of GAG vs control,[2]; Alcian blue,clearly different
same,E2F1 protein (translation level),E2F1 [3],up‐regulated E2F1 at the translation level
same,mRNA level of E2F1,E2F1 [4],significantly up‐regulated
same,ratio of phosphorylated/total Akt (p/t-Akt),Akt; 10 µmol/L BAK,improved the ratios
same,MKI67 protein synthesis (immunofluorescent staining),MKI67 [5],clearly promoted MKI67 protein synthesis
same,ratio of phosphorylated/total ERK1/2 (p/t-ERK1/2),ERK1/2; 10 µmol/L BAK,improved the ratios
same,CDK1 protein synthesis,"CDK1 [6]; 10 µmol/L BAK, Figure 4",significantly stimulated CDK1 protein synthesis
same,CDK1 protein synthesis,CDK1 [6]; BAK 1 to 10 µmol/L for 3 d,stimulated CDK1 protein synthesis
same,mRNA level of CDK1,CDK1 [7],significantly up‐regulated
Oc1cccc(-c2nc(N3CCOCC3)c3oc4ncccc4c3n2)c1 [PI‐103],p/t-Akt ratio in chondrocytes,Akt; 1 µmol/L PI-103 added to 10 µmol/L BAK,reduced
same,CDK1 protein levels in chondrocytes,CDK1 [6],reduced
O=C(Nc1ccc2[nH]nc(-c3ccncc3)c2c1)[C@@H]1CCN(CC(=O)N2CCN(c3ccc(-c4ncccn4)cc3)CC2)C1 [SCH772984],p/t-ERK1/2 ratio in chondrocytes,ERK1/2; 1 µmol/L SCH772984 added to 10 µmol/L BAK,reduced
same,CDK1 protein levels in chondrocytes,CDK1 [6],reduced
